Results on 2 molecules are retold here after US8962880B2, “Amorphous asiatic tromethamine salt and preparation method thereof” (Shanghai Institute of Pharmaceutical Industry, priority 2011, dated 2015).

The conditions of data set [1]: in vivo, 50 mg.

Each structure is given as a SMILES string. ≈ marks a conversion by molar mass, not a printed value.

One may read the solubility as the concentration that dissolves in the medium under given conditions. Regarding `C[C@H]1[C@H](C)CC[C@]2(C(=O)O)CC[C@]3(C)C(=CC[C@@H]4[C@@]5(C)C[C@@H](O)[C@H](O)[C@@](C)(CO)[C@@H]5CC[C@]43C)[C@H]12` [asiatic acid, 2α,3β,23-trihydroxy-ursa-12-en-28-oic acid], the solubility in the data set “physchem” (organic solvent or mixture) turned out to be 33.1 mg/mL (≈ 67.7 mM); in the data set “physchem” (water), 0.03 mg/mL (≈ 0.0614 mM).

For `C[C@H]1[C@H](C)CC[C@]2(C(=O)O)CC[C@]3(C)C(=CC[C@@H]4[C@@]5(C)C[C@@H](O)[C@H](O)[C@@](C)(CO)[C@@H]5CC[C@]43C)[C@H]12.NC(CO)(CO)CO` [comparative sample, asiatic acid tromethamine salt], the bioavailability result in data set [1] is “ca. 7.6%”.
